Experimental data as given in PubChem BioAssay AID2060348 (Molecular Pharmacology Branch, DTP, NCI, 2025).

Test system: 885724-159-R-J1-PDC spheroids viability
Experiment: Anticancer human tumor 885724-159-R-J1-PDC patient-derived pancreatic adenocarcinoma cell line growth inhibition [TAK]
Details: spheroids with HUVEC and MSC; for IC50: curve of first compound; for viability, T/C: stronger effect = lower value
Description: Combinatorial screen of targeted agents with TAK-243 and ipatasertib in multi-cell type tumor spheroids
A high-throughput screen of multi-cell type tumor spheroids was designed to identify active combinations of targeted small molecules and TAK-243 or ipatasertib. Complex spheroids include a stromal component modeled by human endothelial cells (HUVEC) and fibroblasts modeled by human mesenchymal stem cells (MSCs). The concentration ranges selected for each drug and investigational agent were based upon clinically achievable concentrations if the clinical Cmax of the agent was known.
Compounds. The drugs and investigational agents: TAK-243 (785004), ipatasertib (767898), everolimus (733504), selumetinib (741078), bortezomib (756655), trametinib (758246), ixazomib (758254), vemurafenib (761431), dabrafenib (764134), sapanisertib (764658), alpelisib (765974), and copanlisib (816437), were obtained from the National Cancer Institute (NCI) Developmental Therapeutics Program Chemical Repository. The FDA-approved anticancer drug set is available from the NCI Developmental Therapeutics Program. […] The stock solutions were prepared in dimethyl sulfoxide (DMSO, Sigma-Aldrich, St. Louis, MO, cat. D2650) at 800-fold the tested concentration and stored at -70 degrees C prior to their use. All drugs and investigational agents were tested over a range starting from a high concentration at or near the clinical Cmax and decreasing in half-log increments. If the clinical Cmax for an agent had not been determined, the highest concentration tested was 10 microM.
NCI60 Cell Culture. NCI60 cell lines were obtained from the NCI Developmental Therapeutics Program Tumor Repository. For each lot of cells, the Repository performed Applied Biosystems AmpFLSTR Identifiler testing with PCR amplification to confirm consistency with the published Identifier STR profile for each cell line. Cells were kept in continuous culture for no more than 20 passages. The optimal seeding densities for each of the cell lines at each time point assessed were determined prior to performing the concentration response studies. Briefly, the NCI60 human tumor lines were grown as monolayers in RPMI 1640 medium supplemented with 10% FBS and 2 mmol/L L-glutamine.
An additional 2 lines were from the NCI60 cell line panel including melanomas, MALME-3M and SK-MEL-2. Pooled donor human umbilical vein endothelial cells (HUVEC, Lonza, cat. CC-2519) and human mesenchymal stem cells (hMSC, Lonza, cat. PT-2501) were purchased from Lonza (Walkersville, MD).
PDMR cell lines were grown in complete medium (DC medium): Dulbecco's modified Eagle's medium (DMEM)/F12 supplemented with 5% fetal bovine serum (FBS), 2 mM L-glutamine, 100 U/mL penicillin and 100 µg/ml streptomycin, 0.4 µg/ml hydrocortisone, 10 ng/ml epidermal growth factor (EGF) recombinant human protein, 24 µg/mL adenine, and 0.1 mg/mL primocin. During culture from frozen stock vials, PDMR cells were cultured in the same medium containing 10 µM Y-27632 (see Table 3). The PDCs were cultured in complete DMEM/F12 media without 10 microM Y-27632 dihydrochloride for at least two passages prior to the screen. The pooled donor HUVEC and hMSC were cultured in endothelial cell growth medium 2 (PromoCell, Heidelberg, Germany, cat. C-22011) and mesenchymal stem cell growth medium 2 (PromoCell, cat. C-28009), respectively. For all experiments, HUVEC and hMSC were used at passages </=5.
For the pre-screen, cell seeding densities were determined from a titration spanning the range from 5,000 to 313 cells per well. The mct-spheroids including 60% malignant cells, 25% HUVEC and 15% MSC dispensed as a mixture into U-bottom Ultra-Low Attachment 384-well plates (Corning, NY)
High-throughput Drug Combination Screening.
Prior to their inoculation into 384-well plates, malignant cells, HUVEC, and hMSC were removed from T flasks using TrypLE express (Thermo Fisher Scientific, cat. 12605036) and harvested by centrifugation for 5 min at 233 x g. […]
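Further: spheroids exposed to drugs for seven days.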
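Wherever viability, T/C is given: 100% = DMSO vehicle control viability.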

Work on `COC1CC2CCC(C)C(O)(O2)C(=O)C(=O)N2CCCCC2C(=O)OC(C(C)CC2CCC(OCCO)C(OC)C2)CC(=O)C(C)C=C(C)C(O)C(OC)C(=O)C(C)CC(C)C=CC=CC=C1C` (stereo not given) + CC(C)NCC(C(=O)N1CCN(c2ncnc3c2C(C)CC3O)CC1)c1ccc(Cl)cc1 yielded an IC50 (second compound 0.3 µM) greater than 100 nM, an IC50 (second compound 0.949 µM) greater than 100 nM and an IC50 (second compound 3 µM) of 28.3 nM. For the same compound, the IC50 (second compound 9.49 µM) was less than 0.316 nM, the IC50 (second compound 30 µM) was less than 0.316 nM and the viability, T/C (second compound 0.3 µM, first compound 0.000316 µM) was 68.2%. The viability, T/C (second compound 0.3 µM, first compound 0.001 µM) was 62.3%, the viability, T/C (second compound 0.3 µM, first compound 0.00316 µM) was 62.3% and the viability, T/C (second compound 0.3 µM, first compound 0.01 µM) was 58.5%. It also gave a viability, T/C (second compound 0.3 µM, first compound 0.0316 µM) of 57.4%, a viability, T/C (second compound 0.3 µM, first compound 0.1 µM) of 56.3% and a viability, T/C (second compound 0.949 µM, first compound 0.000316 µM) of 63.1%. It also gave a viability, T/C (second compound 0.949 µM, first compound 0.001 µM) of 58.5%, a viability, T/C (second compound 0.949 µM, first compound 0.00316 µM) of 56.4% and a viability, T/C (second compound 0.949 µM, first compound 0.01 µM) of 59.3%. For the same compound, the viability, T/C (second compound 0.949 µM, first compound 0.0316 µM) was 58.4%, the viability, T/C (second compound 0.949 µM, first compound 0.1 µM) was 61.2% and the viability, T/C (second compound 3 µM, first compound 0.000316 µM) was 60.5%. It also gave a viability, T/C (second compound 3 µM, first compound 0.001 µM) of 60.4%, a viability, T/C (second compound 3 µM, first compound 0.00316 µM) of 53.3% and a viability, T/C (second compound 3 µM, first compound 0.01 µM) of 50.7%. The viability, T/C (second compound 3 µM, first compound 0.0316 µM) was 52.5%, the viability, T/C (second compound 3 µM, first compound 0.1 µM) was 46.2% and the viability, T/C (second compound 9.49 µM, first compound 0.000316 µM) was 48.2%. For the same compound, the viability, T/C (second compound 9.49 µM, first compound 0.001 µM) was 49.6%, the viability, T/C (second compound 9.49 µM, first compound 0.00316 µM) was 47.3% and the viability, T/C (second compound 9.49 µM, first compound 0.01 µM) was 41.4%. It also gave a viability, T/C (second compound 9.49 µM, first compound 0.0316 µM) of 42.5%, a viability, T/C (second compound 9.49 µM, first compound 0.1 µM) of 39.4% and a viability, T/C (second compound 30 µM, first compound 0.000316 µM) of 31.3%. For the same compound, the viability, T/C (second compound 30 µM, first compound 0.001 µM) was 27.5%, the viability, T/C (second compound 30 µM, first compound 0.00316 µM) was 27.5% and the viability, T/C (second compound 30 µM, first compound 0.01 µM) was 23.8%. For the same compound, the viability, T/C (second compound 30 µM, first compound 0.0316 µM) was 29.3% and the viability, T/C (second compound 30 µM, first compound 0.1 µM) was 25.5%.
`Cn1cnc2c(F)c(Nc3ccc(Br)cc3Cl)c(C(=O)NOCCO)cc21` + CC(C)NCC(C(=O)N1CCN(c2ncnc3c2C(C)CC3O)CC1)c1ccc(Cl)cc1 was tested, and the IC50 (second compound 0.3 µM) was less than 9.49 nM, the IC50 (second compound 0.949 µM) was less than 9.49 nM and the IC50 (second compound 3 µM) was less than 9.49 nM. The IC50 (second compound 9.49 µM) was less than 9.49 nM, the IC50 (second compound 30 µM) was less than 9.49 nM and the viability, T/C (second compound 0.3 µM, first compound 0.00949 µM) was 49.1%. It also gave a viability, T/C (second compound 0.3 µM, first compound 0.03 µM) of 42.5%, a viability, T/C (second compound 0.3 µM, first compound 0.0949 µM) of 29.3% and a viability, T/C (second compound 0.3 µM, first compound 0.3 µM) of 24.9%. It also gave a viability, T/C (second compound 0.3 µM, first compound 0.949 µM) of 18.8%, a viability, T/C (second compound 0.3 µM, first compound 3 µM) of 14.1% and a viability, T/C (second compound 0.949 µM, first compound 0.00949 µM) of 45.2%. The viability, T/C (second compound 0.949 µM, first compound 0.03 µM) was 41.2%, the viability, T/C (second compound 0.949 µM, first compound 0.0949 µM) was 30.5% and the viability, T/C (second compound 0.949 µM, first compound 0.3 µM) was 22.6%. It also gave a viability, T/C (second compound 0.949 µM, first compound 0.949 µM) of 16.6%, a viability, T/C (second compound 0.949 µM, first compound 3 µM) of 10.3% and a viability, T/C (second compound 3 µM, first compound 0.00949 µM) of 42%. For the same compound, the viability, T/C (second compound 3 µM, first compound 0.03 µM) was 37.1%, the viability, T/C (second compound 3 µM, first compound 0.0949 µM) was 27.5% and the viability, T/C (second compound 3 µM, first compound 0.3 µM) was 18.7%. The viability, T/C (second compound 3 µM, first compound 0.949 µM) was 12.6%, the viability, T/C (second compound 3 µM, first compound 3 µM) was 7.23% and the viability, T/C (second compound 9.49 µM, first compound 0.00949 µM) was 36.7%. For the same compound, the viability, T/C (second compound 9.49 µM, first compound 0.03 µM) was 27.9%, the viability, T/C (second compound 9.49 µM, first compound 0.0949 µM) was 16.8% and the viability, T/C (second compound 9.49 µM, first compound 0.3 µM) was 13.7%. For the same compound, the viability, T/C (second compound 9.49 µM, first compound 0.949 µM) was 9.53%, the viability, T/C (second compound 9.49 µM, first compound 3 µM) was 4.7% and the viability, T/C (second compound 30 µM, first compound 0.00949 µM) was 20.5%. The viability, T/C (second compound 30 µM, first compound 0.03 µM) was 13.7%, the viability, T/C (second compound 30 µM, first compound 0.0949 µM) was 9.15% and the viability, T/C (second compound 30 µM, first compound 0.3 µM) was 5.41%. It also gave a viability, T/C (second compound 30 µM, first compound 0.949 µM) of 3.69% and a viability, T/C (second compound 30 µM, first compound 3 µM) of 2.03%.
